Values joined by “and” are separate entries in the source; they are usually repeats but may differ in a detail not shown here. Identical values can stand only once.
Tests used:
Assay type in all cases: in vivo
[1] = tested on: Botrytis cinerea; experiment: Treatment of wounded apples inoculated with Botrytis cinerea (dip, mould growth); settings: 250 ppm natamycin, 20° C.
Experimental: Twelf fresh, organic apples were used per treatment. Each apple was wounded once using a cork borer according to the method described by de Lapeyre de Bellaire and Dubois (1987). Subsequently, each wound was inoculated with 10 μl of a Botrytis cinerea suspension containing 1×10^5 of spores/ml. […] In addition, the antifungal compositions comprised 3.1% (w/w) beeswax, 0.76% (w/w) glycerol, 0.66% (w/w) polyoxyethylene sorbitan monostearate (Tween 60), 0.03% (w/w) methylhydroxyethylcellulose (MHEC), 0.02% (w/w) xanthan gum, 0.02% (w/w) anti-foaming agent, 0.15% (w/w) citric acid and 0.01% (w/w) potassium sorbate. The pH of the compositions was 4. […] The treated apples were incubated in a closed box in the dark at 20° C.
During incubation, the treated apples were assessed on mould growth according to the two methods described in Example 8.

[2] = tested on: Penicillium italicum; experiment: Treatment of wounded mandarins inoculated with Penicillium italicum (dip, mould growth); settings: 500 ppm natamycin, 2000 ppm procymidone or both, 20° C.
Experimental: Ten fresh, organic mandarins were used per treatment. The peel of each mandarin was wounded once using a cork borer according to the method described by de Lapeyre de Bellaire and Dubois (1987). Subsequently, each wound was inoculated with 10 μl of a Penicillium italicum suspension containing 1×10^4 of spores/ml. […] In addition, the antifungal compositions comprised 3.1% (w/w) beeswax, 0.76% (w/w) glycerol, 0.66% (w/w) polyoxyethylene sorbitan monostearate (Tween 60), 0.03% (w/w) methylhydroxyethylcellulose (MHEC), 0.02% (w/w) xanthan gum, 0.02% (w/w) anti-foaming agent, 0.15% (w/w) citric acid and 0.01% (w/w) potassium sorbate. The pH of the compositions was 4. A composition without natamycin or procymidone was used as control.
The treated mandarins were incubated in a closed box in the dark at 20° C. and assessed on mould growth after 6, 8, 10, 13, 15 and 18 days of incubation. The antifungal activity (in %) of the individual and combined active ingredients was determined by calculating the reduction in mould growth observed on the mandarins treated with the antifungal composition in comparison to the mould growth on the mandarins treated with the control composition according to the Colby method (Colby, 1967) described in Example 3.

[3] = tested on: Botrytis cinerea; experiment: Treatment of wounded strawberries inoculated with Botrytis cinerea (dip, mould growth); settings: 20° C.
Experimental: Ten fresh, organic strawberries were used per treatment. Each strawberry was wounded with a 0.5 mm long cut and each wound was inoculated with 10 μl of a Botrytis cinerea suspension containing 1×10^5 of spores/ml. […] The antifungal composition also comprised 3.1% (w/w) beeswax, 0.76% (w/w) glycerol, 0.66% (w/w) polyoxyethylene sorbitan monostearate (Tween 60), 0.03% (w/w) methylhydroxyethyl-cellulose (MHEC), 0.02% (w/w) xanthan gum, 0.02% (w/w) anti-foaming agent, 0.15% (w/w) citric acid and 0.01% (w/w) potassium sorbate. The pH of the compositions was 4. A composition without natamycin or procymidone was used as control. The treated strawberries were incubated in a closed box in the dark at 20° C. for 13 days.
During incubation, mould growth on the strawberries was assessed in a twofold manner: (i) the number of moulded strawberries per total of 10 strawberries was counted; and (ii) the antifungal activity (in %) of the individual and combined active ingredients was determined by calculating the reduction in mould growth observed on the strawberries treated with the antifungal composition in comparison to the mould growth on the strawberries treated with the control composition. The expected antifungal activity (E in %) of the combined antifungal composition comprising both active ingredients was calculated according to the Colby equation (Colby, 1967): […]
wherein X and Y are the observed antifungal activities (in %) of the individual active ingredients X and Y, respectively. If the observed antifungal activity (O in %) of the combination exceeds the expected antifungal activity (E in %) of the combination and the synergy factor O/E is thus >1.0, the combined application of the active ingredients leads to a synergistic antifungal effect.
The treated strawberries were assessed on mould growth after 4, 5 and 7 days of incubation according to the two methods described in Example 3.
The treated strawberries were incubated for 9 days and, as of day 5, assessed on mould growth daily. The antifungal activity (in %) of the individual and combined active ingredients was determined according to the method described in Example 3.
During incubation, the treated strawberries were assessed on mould growth according to the two methods described in Example 3.

[4] = 500 ppm procymidone or both, day 13
[5] = 250 ppm natamycin, 250 ppm procymidone or both, day 4
[6] = 250 ppm natamycin, 250 ppm procymidone or both, day 5
[7] = 250 ppm natamycin, 250 ppm procymidone or both, day 6
[8] = 250 ppm natamycin, 250 ppm procymidone or both, day 7
[9] = 250 ppm natamycin, 250 ppm procymidone or both, day 8
[10] = 250 ppm natamycin, 250 ppm procymidone or both, day 9
[11] = 500 ppm natamycin, 1000 ppm procymidone or both, day 5
[12] = 500 ppm natamycin, 1000 ppm procymidone or both, day 7
[13] = 500 ppm natamycin, 2000 ppm procymidone or both, day 5
[14] = 500 ppm natamycin, 2000 ppm procymidone or both, day 6
[15] = 500 ppm natamycin, 2000 ppm procymidone or both, day 7
[16] = 500 ppm natamycin, 2000 ppm procymidone or both, day 12

Compound: CC12CC1(C)C(=O)N(c1cc(Cl)cc(Cl)c1)C2=O (stereo not drawn) [Procymidone, procymidone]
- Number of moulded apples/total number of 12 apples ([1]; 250 ppm procymidone or both, day 6): 7 and 7/12
- Number of moulded apples/total number of 12 apples ([1]; 250 ppm procymidone or both, day 7-11): 8 and 8/12
- Number of moulded apples/total number of 12 apples ([1]; 250 ppm procymidone or both, day 12-13): 12/12
- Observed antifungal activity O (%) ([1]; 250 ppm procymidone or both, day 13): 65%
- Observed antifungal activity O (%) ([1]; 250 ppm procymidone or both, day 14): 55%
- Number of moulded apples/total number of 12 apples ([1]; 250 ppm procymidone or both, day 14-25): 12/12
- Observed antifungal activity O (%) ([1]; 250 ppm procymidone or both, day 15): 50%
- Observed antifungal activity O (%) ([1]; 250 ppm procymidone or both, day 17): 44%
- Observed antifungal activity O (%) ([1]; 250 ppm procymidone or both, day 18): 37%
- Observed antifungal activity O (%) ([1]; 250 ppm procymidone or both, day 20): 31%
- Observed antifungal activity O (%) ([1]; 250 ppm procymidone or both, day 22): 26%
- Observed antifungal activity O (%) ([1]; 250 ppm procymidone or both, day 25): 17%
- Number of moulded apples/total number of 12 apples ([1]; 500 ppm procymidone or both, day 4): 8 and 8/12
- Number of moulded apples/total number of 12 apples ([1]; 500 ppm procymidone or both, day 5-6): 8 and 8/12
- Number of moulded apples/total number of 12 apples ([1]; 500 ppm procymidone or both, day 7-11): 8 and 8/12
- Number of moulded apples/total number of 12 apples ([1]; 500 ppm procymidone or both, day 12): 10 and 10/12
- Number of moulded apples/total number of 12 apples [1, 4]: 11 and 11/12
- Observed antifungal activity O (%) [1, 4]: 75%
- Observed antifungal activity O (%) ([1]; 500 ppm procymidone or both, day 14): 71%
- Number of moulded apples/total number of 12 apples ([1]; 500 ppm procymidone or both, day 14-25): 12/12
- Observed antifungal activity O (%) ([1]; 500 ppm procymidone or both, day 15): 67%
- Observed antifungal activity O (%) ([1]; 500 ppm procymidone or both, day 17): 57%
- Observed antifungal activity O (%) ([1]; 500 ppm procymidone or both, day 18): 51%
- Observed antifungal activity O (%) ([1]; 500 ppm procymidone or both, day 20): 45%
- Observed antifungal activity O (%) ([1]; 500 ppm procymidone or both, day 22): 38%
- Observed antifungal activity O (%) ([1]; 500 ppm procymidone or both, day 25): 26%
- Observed antifungal activity O (%) ([2]; day 6): 0%
- Observed antifungal activity O (%) ([2]; day 8): 0%
- Observed antifungal activity O (%) ([2]; day 10): 0%
- Observed antifungal activity O (%) ([2]; day 13): 0%
- Observed antifungal activity O (%) ([2]; day 15): 0%
- Observed antifungal activity O (%) ([2]; day 18): 0%
- Number of moulded strawberries/total number of 10 strawberries [3, 5]: 10 and 10/10
- Observed antifungal activity O (%) [3, 5]: 58%
- Number of moulded strawberries/total number of 10 strawberries [3, 6]: 10 and 10/10
- Observed antifungal activity O (%) [3, 6]: 41%
- Number of moulded strawberries/total number of 10 strawberries [3, 7]: 10 and 10/10
- Observed antifungal activity O (%) [3, 7]: 34%
- Number of moulded strawberries/total number of 10 strawberries [3, 8]: 10 and 10/10
- Observed antifungal activity O (%) [3, 8]: 31%
- Number of moulded strawberries/total number of 10 strawberries [3, 9]: 10 and 10/10
- Observed antifungal activity O (%) [3, 9]: 27%
- Number of moulded strawberries/total number of 10 strawberries [3, 10]: 10 and 10/10
- Observed antifungal activity O (%) [3, 10]: 13%
- Observed antifungal activity O (%) ([3]; 250 ppm natamycin, 250 ppm procymidone or both, day 10): 10%
- Observed antifungal activity O (%) ([3]; 250 ppm natamycin, 250 ppm procymidone or both, day 12): 5%
- Observed antifungal activity O (%) ([3]; 250 ppm natamycin, 500 ppm procymidone or both, day 5): 39%
- Observed antifungal activity O (%) ([3]; 250 ppm natamycin, 500 ppm procymidone or both, day 6): 26%
- Observed antifungal activity O (%) ([3]; 250 ppm natamycin, 500 ppm procymidone or both, day 7): 20%
- Observed antifungal activity O (%) ([3]; 250 ppm natamycin, 500 ppm procymidone or both, day 8): 20%
- Observed antifungal activity O (%) ([3]; 250 ppm natamycin, 500 ppm procymidone or both, day 9): 17%
- Observed antifungal activity O (%) ([3]; 500 ppm natamycin, 1000 ppm procymidone or both, day 4): 69%
- Number of moulded strawberries/total number of 10 strawberries [3, 11]: 10 and 10/10
- Observed antifungal activity O (%) [3, 11]: 59%
- Number of moulded strawberries/total number of 10 strawberries [3, 12]: 10 and 10/10
- Observed antifungal activity O (%) [3, 12]: 44%
- Number of moulded strawberries/total number of 10 strawberries [3, 13]: 8 and 8/10
- Observed antifungal activity O (%) [3, 13]: 63%
- Number of moulded strawberries/total number of 10 strawberries [3, 14]: 9 and 9/10
- Observed antifungal activity O (%) [3, 14]: 51%
- Number of moulded strawberries/total number of 10 strawberries [3, 15]: 10 and 10/10
- Observed antifungal activity O (%) [3, 15]: 38%
- Observed antifungal activity O (%) ([3]; 500 ppm natamycin, 2000 ppm procymidone or both, day 8): 35%
- Number of moulded strawberries/total number of 10 strawberries ([3]; 500 ppm natamycin, 2000 ppm procymidone or both, day 8-10): 10 and 10/10
- Observed antifungal activity O (%) ([3]; 500 ppm natamycin, 2000 ppm procymidone or both, day 9): 23%
- Observed antifungal activity O (%) ([3]; 500 ppm natamycin, 2000 ppm procymidone or both, day 10): 13%
- Number of moulded strawberries/total number of 10 strawberries [3, 16]: 10 and 10/10
- Observed antifungal activity O (%) [3, 16]: 2%
- Observed antifungal activity O (%) ([3]; 500 ppm natamycin, 2000 ppm procymidone or both, day 13): 0%

— patent US20130324489A1, “NEW ANTIFUNGAL COMPOSITIONS” (DSM IP ASSETS B.V., priority 2011, published 2013)
